Reference: the supplement of paper PMC13380429
± gives the standard deviation of the averaged measurements.

How the values were obtained:
Conditions in all cases: 72 h
Calu-3 [1] = assay: cell viability relative to DMSO; higher = less toxic
U2OS [2] = assay: as above
Vero E6 [3] = assay: as above
HepG2 [4] = assay: as above
Caco-2 [5] = assay: as above
Calu-3 [6] = assay: drug sensitivity score (DSS) for viability; higher = more toxic; extreme values may be limits of the assay
U2OS [7] = assay: as above
Vero E6 [8] = assay: as above
HepG2 [9] = assay: as above
Caco-2 [10] = assay: as above
Calu-3 [11] = assay: relative viability EC50 (midpoint between 100% and the lowest measured viability); higher = less toxic
U2OS [12] = assay: as above
Vero E6 [13] = assay: as above
HepG2 [14] = assay: as above
Caco-2 [15] = assay: as above

Structure (SMILES) | cell viability (Calu-3 [1]; 1 nM) | cell viability (Calu-3 [1]; 10 nM) | cell viability (Calu-3 [1]; 100 nM) | cell viability (Calu-3 [1]; 1000 nM) | cell viability (Calu-3 [1]; 10000 nM) | cell viability (U2OS [2]; 1 nM) | cell viability (U2OS [2]; 10 nM) | cell viability (U2OS [2]; 100 nM) | cell viability (U2OS [2]; 1000 nM) | cell viability (U2OS [2]; 10000 nM) | cell viability (Vero E6 [3]; 1 nM) | cell viability (Vero E6 [3]; 10 nM) | cell viability (Vero E6 [3]; 100 nM) | cell viability (Vero E6 [3]; 1000 nM) | cell viability (Vero E6 [3]; 10000 nM) | cell viability (HepG2 [4]; 1 nM) | cell viability (HepG2 [4]; 10 nM) | cell viability (HepG2 [4]; 100 nM) | cell viability (HepG2 [4]; 1000 nM) | cell viability (HepG2 [4]; 10000 nM) | cell viability (Caco-2 [5]; 1 nM) | cell viability (Caco-2 [5]; 10 nM) | cell viability (Caco-2 [5]; 100 nM) | cell viability (Caco-2 [5]; 1000 nM) | cell viability (Caco-2 [5]; 10000 nM) | drug sensitivity score (Calu-3 [6]) | drug sensitivity score (U2OS [7]) | drug sensitivity score (Vero E6 [8]) | drug sensitivity score (HepG2 [9]) | drug sensitivity score (Caco-2 [10]) | relative viability EC50 (Calu-3 [11]) | relative viability EC50 (U2OS [12]) | relative viability EC50 (Vero E6 [13]) | relative viability EC50 (HepG2 [14]) | relative viability EC50 (Caco-2 [15])
C=C[C@H]1CN2CC[C@H]1C[C@H]2[C@H](O)c1ccnc2ccccc12 [cinchonidine] | 95.2 ± 1.6% | 102 ± 2.5% | 100 ± 4% | 98.7 ± 5% | 106 ± 5.8% | 98.35 ± 0.071% | 103 ± 2% | 97.85 ± 0.78% | 102 ± 1.2% | 99.5 ± 4.2% | 104 ± 4% | 105 ± 5.8% | 106 ± 0.21% | 95.55 ± 0.64% | 97.1 ± 1.7% | 104 ± 7.8% | 94.5 ± 1.2% | 97.05 ± 0.35% | 92 ± 0.42% | 94.2 ± 2.8% | 94.8 ± 2.2% | 98.6 ± 0.42% | 99.8 ± 11% | 114 ± 16% | 116 ± 5.9% | 0 | 0 | 0 | 0 | 0 | > 10 µM | > 10 µM | > 10 µM | > 10 µM | > 10 µM
CN1CC(=O)NC1=N [creatinine] | 97.2% | 99.7% | 85% | 95.7% | 87.5% | 100% | 99.5% | 97.3% | 98.4% | 95.5% | 100% | 97% | 93.9% | 96.1% | 98.7% | 97.4% | 97.3% | 104% | 90.9% | 103% | 95.8% | 96.6% | 96.9% | 102% | 99.1% | 0.2 | 0 | 0 | 0 | 0 | > 10 µM | > 10 µM | > 10 µM | > 10 µM | > 10 µM
CN(C)CCC=C1c2ccccc2C=Cc2ccccc21 [cyclobenzaprine] | 98.8% | 99.3% | 94.8% | 99% | 101% | 102% | 98.4% | 103% | 101% | 104% | 100% | 99.6% | 92.2% | 107% | 101% | 111% | 97.9% | 104% | 113% | 103% | 102% | 108% | 101% | 98.8% | 114% | 0 | 0 | 0 | 0 | 0 | > 10 µM | > 10 µM | > 10 µM | > 10 µM | > 10 µM
